Tested on: 415267-285-R-J2-PDC complex spheroid viability
Experiment: Anticancer human tumor 415267-285-R-J2-PDC patient-derived breast carcinoma cell line growth inhibition [POLQ]
Conditions: for IC50: curve of first compound; for viability, T/C: stronger effect = lower value
Procedure, shortened: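 PDC + HUVEC + MSC complex spheroids; POLQ inhibitors ± partner drugs; top conc. at/near clinical Cmax, else 10 microM (SN-38 1 microM), half-log dilutions; 37 degrees C, 5% CO2.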

[1] = second compound 0.0316 µM, first compound 0.0316 µM
[2] = second compound 0.0316 µM, first compound 0.1 µM
[3] = second compound 0.0316 µM, first compound 0.316 µM
[4] = second compound 0.0316 µM, first compound 1 µM
[5] = second compound 0.0316 µM, first compound 3.16 µM
[6] = second compound 0.0316 µM, first compound 10 µM
[7] = second compound 0.1 µM, first compound 0.0316 µM
[8] = second compound 0.1 µM, first compound 0.1 µM
[9] = second compound 0.1 µM, first compound 0.316 µM
[10] = second compound 0.1 µM, first compound 1 µM
[11] = second compound 0.1 µM, first compound 3.16 µM
[12] = second compound 0.1 µM, first compound 10 µM
[13] = second compound 0.316 µM, first compound 0.0316 µM
[14] = second compound 0.316 µM, first compound 0.1 µM
[15] = second compound 0.316 µM, first compound 0.316 µM
[16] = second compound 0.316 µM, first compound 1 µM
[17] = second compound 0.316 µM, first compound 3.16 µM
[18] = second compound 0.316 µM, first compound 10 µM
[19] = second compound 1 µM, first compound 0.0316 µM
[20] = second compound 1 µM, first compound 0.1 µM
[21] = second compound 1 µM, first compound 0.316 µM
[22] = second compound 1 µM, first compound 1 µM
[23] = second compound 1 µM, first compound 3.16 µM
[24] = second compound 1 µM, first compound 10 µM
[25] = second compound 3.16 µM, first compound 0.0316 µM
[26] = second compound 3.16 µM, first compound 0.1 µM
[27] = second compound 3.16 µM, first compound 0.316 µM
[28] = second compound 3.16 µM, first compound 1 µM
[29] = second compound 3.16 µM, first compound 3.16 µM
[30] = second compound 3.16 µM, first compound 10 µM
[31] = second compound 10 µM, first compound 0.0316 µM
[32] = second compound 10 µM, first compound 0.1 µM
[33] = second compound 10 µM, first compound 0.316 µM
[34] = second compound 10 µM, first compound 1 µM
[35] = second compound 10 µM, first compound 3.16 µM
[36] = second compound 10 µM, first compound 10 µM
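Note: spheroids exposed to compounds for one week before readout.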
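Throughout, for viability, T/C: luminescence used as stand-in measure of viable cells; 100% = DMSO vehicle control viability.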

For `CC(=O)O[C@H]1C(=O)[C@@]2(C)[C@H]([C@H](OC(=O)c3ccccc3)[C@]3(O)C[C@H](OC(=O)[C@H](O)[C@@H](NC(=O)c4ccccc4)c4ccccc4)C(C)=C1C3(C)C)[C@]1(OC(C)=O)CO[C@@H]1C[C@@H]2O` + Cc1cccc(N(C)C(=O)C2C(O)CCN2c2nc(C)cc(C(F)(F)F)c2C#N)c1, the IC50 (second compound 0.0316 µM) was < 9.49 nM, the IC50 (second compound 0.1 µM) was < 9.49 nM and the IC50 (second compound 0.316 µM) was < 9.49 nM. For the same molecule, the IC50 (second compound 1 µM) was < 9.49 nM, the IC50 (second compound 3.16 µM) was < 9.49 nM and the IC50 (second compound 10 µM) was < 9.49 nM. The viability, T/C (second compound 0.0316 µM, first compound 0.00949 µM) was 17.5%, the viability, T/C (second compound 0.0316 µM, first compound 0.03 µM) was 9.49% and the viability, T/C (second compound 0.0316 µM, first compound 0.0949 µM) was 9.45%. For the same molecule, the viability, T/C (second compound 0.0316 µM, first compound 0.3 µM) was 5.12%, the viability, T/C (second compound 0.0316 µM, first compound 0.949 µM) was 6.11% and the viability, T/C (second compound 0.0316 µM, first compound 3 µM) was 8.5%. The viability, T/C (second compound 0.1 µM, first compound 0.00949 µM) was 14.3%, the viability, T/C (second compound 0.1 µM, first compound 0.03 µM) was 10.3% and the viability, T/C (second compound 0.1 µM, first compound 0.0949 µM) was 6.91%. For the same molecule, the viability, T/C (second compound 0.1 µM, first compound 0.3 µM) was 5.82%, the viability, T/C (second compound 0.1 µM, first compound 0.949 µM) was 6.96% and the viability, T/C (second compound 0.1 µM, first compound 3 µM) was 7.65%. It also gave a viability, T/C (second compound 0.316 µM, first compound 0.00949 µM) of 15.2%, a viability, T/C (second compound 0.316 µM, first compound 0.03 µM) of 10.9% and a viability, T/C (second compound 0.316 µM, first compound 0.0949 µM) of 8.77%. It also gave a viability, T/C (second compound 0.316 µM, first compound 0.3 µM) of 8.04%, a viability, T/C (second compound 0.316 µM, first compound 0.949 µM) of 7.71% and a viability, T/C (second compound 0.316 µM, first compound 3 µM) of 6.2%. It also gave a viability, T/C (second compound 1 µM, first compound 0.00949 µM) of 16.9%, a viability, T/C (second compound 1 µM, first compound 0.03 µM) of 8.87% and a viability, T/C (second compound 1 µM, first compound 0.0949 µM) of 7.59%. The viability, T/C (second compound 1 µM, first compound 0.3 µM) was 5.96%, the viability, T/C (second compound 1 µM, first compound 0.949 µM) was 7.86% and the viability, T/C (second compound 1 µM, first compound 3 µM) was 7.38%. For the same molecule, the viability, T/C (second compound 3.16 µM, first compound 0.00949 µM) was 13.7%, the viability, T/C (second compound 3.16 µM, first compound 0.03 µM) was 9.96% and the viability, T/C (second compound 3.16 µM, first compound 0.0949 µM) was 7.09%. The viability, T/C (second compound 3.16 µM, first compound 0.3 µM) was 7.4%, the viability, T/C (second compound 3.16 µM, first compound 0.949 µM) was 6.8% and the viability, T/C (second compound 3.16 µM, first compound 3 µM) was 8.17%. The viability, T/C (second compound 10 µM, first compound 0.00949 µM) was 12.7%, the viability, T/C (second compound 10 µM, first compound 0.03 µM) was 10% and the viability, T/C (second compound 10 µM, first compound 0.0949 µM) was 8.12%. It also gave a viability, T/C (second compound 10 µM, first compound 0.3 µM) of 8.5%, a viability, T/C (second compound 10 µM, first compound 0.949 µM) of 8.14% and a viability, T/C (second compound 10 µM, first compound 3 µM) of 9.36%.
In the case of `COc1cc(C2c3cc4c(cc3C(OC3OC5COC(C)OC5C(O)C3O)C3COC(=O)C23)OCO4)cc(OC)c1O` (stereo unspecified) + Cc1cccc(N(C)C(=O)C2C(O)CCN2c2nc(C)cc(C(F)(F)F)c2C#N)c1, the IC50 (second compound 0.0316 µM) is reported as 136 nM, the IC50 (second compound 0.1 µM) is reported as 126 nM and the IC50 (second compound 0.316 µM) is reported as 107 nM. It also gave an IC50 (second compound 1 µM) of 125 nM, an IC50 (second compound 3.16 µM) of 103 nM and an IC50 (second compound 10 µM) of 89.9 nM. It also gave a viability, T/C [1] of 96%, a viability, T/C [2] of 64.5% and a viability, T/C [3] of 10.3%. It also gave a viability, T/C [4] of 6.03%, a viability, T/C [5] of 5.96% and a viability, T/C [6] of 6.13%. The viability, T/C [7] was 83.3%, the viability, T/C [8] was 58.7% and the viability, T/C [9] was 15%. The viability, T/C [10] was 5.93%, the viability, T/C [11] was 6.54% and the viability, T/C [12] was 7.34%. For the same molecule, the viability, T/C [13] was 96.4%, the viability, T/C [14] was 52.3% and the viability, T/C [15] was 14.2%. For the same molecule, the viability, T/C [16] was 7.66%, the viability, T/C [17] was 5.87% and the viability, T/C [18] was 5.74%. The viability, T/C [19] was 91.3%, the viability, T/C [20] was 58.8% and the viability, T/C [21] was 13.1%. It also gave a viability, T/C [22] of 6.58%, a viability, T/C [23] of 4.68% and a viability, T/C [24] of 6.56%. For the same molecule, the viability, T/C [25] was 93.7%, the viability, T/C [26] was 50.9% and the viability, T/C [27] was 10.1%. For the same molecule, the viability, T/C [28] was 7.37%, the viability, T/C [29] was 5.2% and the viability, T/C [30] was 6.34%. The viability, T/C [31] was 79.7%, the viability, T/C [32] was 47% and the viability, T/C [33] was 11%. The viability, T/C [34] was 7.78%, the viability, T/C [35] was 5.72% and the viability, T/C [36] was 5.96%.
Molecule `O=c1[nH]cc(F)c(=O)[nH]1` + Cc1cccc(N(C)C(=O)C2C(O)CCN2c2nc(C)cc(C(F)(F)F)c2C#N)c1 has an IC50 (second compound 0.0316 µM) of 222 nM, an IC50 (second compound 0.1 µM) of 207 nM and an IC50 (second compound 0.316 µM) of 203 nM. For the same molecule, the IC50 (second compound 1 µM) was 181 nM, the IC50 (second compound 3.16 µM) was 192 nM and the IC50 (second compound 10 µM) was 179 nM. The viability, T/C [1] was 87.3%, the viability, T/C [2] was 83.9% and the viability, T/C [3] was 35.1%. For the same molecule, the viability, T/C [4] was 30.1%, the viability, T/C [5] was 27.6% and the viability, T/C [6] was 43%. For the same molecule, the viability, T/C [7] was 97.1%, the viability, T/C [8] was 72.6% and the viability, T/C [9] was 37.3%. It also gave a viability, T/C [10] of 27.2%, a viability, T/C [11] of 28% and a viability, T/C [12] of 39%. The viability, T/C [13] was 98.8%, the viability, T/C [14] was 72% and the viability, T/C [15] was 36.9%. For the same molecule, the viability, T/C [16] was 26.6%, the viability, T/C [17] was 26.8% and the viability, T/C [18] was 36.1%. The viability, T/C [19] was 100%, the viability, T/C [20] was 64.8% and the viability, T/C [21] was 36.7%. It also gave a viability, T/C [22] of 28.5%, a viability, T/C [23] of 25.6% and a viability, T/C [24] of 35.4%. It also gave a viability, T/C [25] of 95.8%, a viability, T/C [26] of 67.9% and a viability, T/C [27] of 36.6%. It also gave a viability, T/C [28] of 28.8%, a viability, T/C [29] of 33.5% and a viability, T/C [30] of 33.6%. It also gave a viability, T/C [31] of 92.1%, a viability, T/C [32] of 64.5% and a viability, T/C [33] of 36.3%. It also gave a viability, T/C [34] of 26.8%, a viability, T/C [35] of 24.7% and a viability, T/C [36] of 29.4%.
